One assay has as its target Polycomb protein EED (Homo sapiens, UniProt O75530). In words: Inhibition of EED (unknown origin) by ELISA based assay. For orientation: In an ELISA, binding on a coated surface is turned into a signal by an enzyme label.
A short description of assay [1]: Inhibition of p38 (unknown origin).

The IC50 is the concentration at which inhibition is half-maximal. The low end stands for higher potency, the high end for lower potency.

Polycomb protein EED, sequence (O75530 whole entry): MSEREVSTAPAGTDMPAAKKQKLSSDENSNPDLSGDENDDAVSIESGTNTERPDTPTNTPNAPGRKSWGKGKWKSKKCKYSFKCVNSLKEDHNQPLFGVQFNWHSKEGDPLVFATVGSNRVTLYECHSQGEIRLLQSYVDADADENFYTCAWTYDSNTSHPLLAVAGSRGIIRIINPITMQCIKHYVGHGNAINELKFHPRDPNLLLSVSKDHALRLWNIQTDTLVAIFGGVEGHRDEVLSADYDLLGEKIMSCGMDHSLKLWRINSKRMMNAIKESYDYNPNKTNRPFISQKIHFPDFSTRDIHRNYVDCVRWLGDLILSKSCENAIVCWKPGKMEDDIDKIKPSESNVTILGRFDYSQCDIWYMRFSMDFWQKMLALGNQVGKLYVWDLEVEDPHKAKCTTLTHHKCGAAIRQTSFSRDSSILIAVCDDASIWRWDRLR

On to `Cc1ncccc1-c1cnc(NCc2c(F)ccc3c2CCO3)n2cnnc12`, for which, on Polycomb protein EED, the IC50 worked out at 0.026 µM.
For the molecule `COc1cc2c(Oc3ccc(NC(=O)C4(C(=O)Nc5ccc(F)cc5)CC4)cc3F)ccnc2cc1OCCCN1CCOCC1` [FORETINIB], in assay [1], the IC50 worked out at 11 µM. That is a double-digit micromolar value.

(Values after ChEMBL document CHEMBL5550121, “Expanding the ligand spaces for E3 ligases for the design of protein degraders” (Bioorg Med Chem, 2024).)
